Assay results reported in patent US20110104301A1, “METHODS OF REDUCING PAIN AND INFLAMMATION” (Georgetown University, A Congressionally Chartered …, priority 2008, published 2011).

Molecular target: T1, mutant S502A/S800A TRPV1 (Rattus norvegicus, UniProt O35433, S502A/S800A)
T1 construct: expressed in transfected cells; host or cells: Xenopus laevis oocytes (cRNA injection)
Experiment: Heat activation in oocytes expressing mutant S502A/S800A TRPV1
Format: cell-based
Method: Oocyte electrophysiology. […] Oocytes were placed in a Perspex chamber and continuously superfused (5 ml min-1) with Ca2+-free solution containing (in mM): 100 NaCl, 2.5 KCl, 5 HEPES, 1 MgCl2 and titrated to pH 7.3 with 5 mM NaOH. For solutions <pH 6.0, HEPES was replaced with either 5 mM MES or 5 mM sodium citrate. Oocytes were routinely voltage-clamped at -60 mV at 22-23° C.

T1 sequence (O35433 whole entry S502A/S800A): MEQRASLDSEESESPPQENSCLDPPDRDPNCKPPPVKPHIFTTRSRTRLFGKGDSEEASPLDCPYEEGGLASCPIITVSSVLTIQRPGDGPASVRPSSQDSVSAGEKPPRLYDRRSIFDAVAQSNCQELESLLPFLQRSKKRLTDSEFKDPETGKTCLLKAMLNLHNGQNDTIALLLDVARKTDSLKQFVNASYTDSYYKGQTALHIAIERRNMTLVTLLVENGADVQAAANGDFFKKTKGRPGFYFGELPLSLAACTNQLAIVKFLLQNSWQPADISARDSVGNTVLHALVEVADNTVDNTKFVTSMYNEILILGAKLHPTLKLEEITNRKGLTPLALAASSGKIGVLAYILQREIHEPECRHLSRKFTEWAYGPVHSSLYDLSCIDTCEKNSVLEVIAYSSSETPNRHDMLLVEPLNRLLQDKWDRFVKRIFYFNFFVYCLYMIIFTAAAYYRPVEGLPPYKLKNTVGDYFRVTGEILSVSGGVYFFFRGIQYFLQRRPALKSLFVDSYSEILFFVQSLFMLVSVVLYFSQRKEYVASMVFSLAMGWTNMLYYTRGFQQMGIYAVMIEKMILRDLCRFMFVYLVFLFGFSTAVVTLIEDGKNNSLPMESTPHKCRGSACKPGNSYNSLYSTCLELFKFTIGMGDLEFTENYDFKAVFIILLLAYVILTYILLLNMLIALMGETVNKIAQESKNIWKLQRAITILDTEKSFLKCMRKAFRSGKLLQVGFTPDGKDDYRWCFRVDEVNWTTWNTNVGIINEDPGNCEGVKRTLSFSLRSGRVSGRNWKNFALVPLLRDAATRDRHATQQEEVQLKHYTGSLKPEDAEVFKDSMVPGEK

**Q.** How did the “Temperature threshold, mutant S502A/S800A TRPV1” value (PDBu+isoflurane, n=3) turn out when `FC(F)OC(Cl)C(F)(F)F` (centres unmarked) [isoflurane] was run?
**A.** The value was 37.3±0.7 °C.

**Q.** What about the “Temperature threshold, mutant S502A/S800A TRPV1” value (isoflurane, n=5) of the same compound?
**A.** Its value is 39.4±1.9 °C.
